Source: PubChem BioAssay (NCI)
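1) Cells in 96-well plates. 2) Compound, 48 h, 5 concentrations. 3) Linear interpolation between surrounding doses. 4) Unreached endpoint = highest concentration. TGI denotes the concentration required for complete inhibition of growth.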

Columns and labels:
Assay in all cases: DTP human tumour cell line panel, 48 h
XF 498 CNS = tested on: XF 498 CNS
EKVX NSCLC = tested on: EKVX NSCLC
LXFL 529 NSCLC = tested on: LXFL 529 NSCLC
SN12C renal = tested on: SN12C renal
MALME-3M melanoma = tested on: MALME-3M melanoma
HCT-15 colon = tested on: HCT-15 colon
LOX IMVI melanoma = tested on: LOX IMVI melanoma
DMS 114 small cell lung = tested on: DMS 114 small cell lung
SK-OV-3 ovarian = tested on: SK-OV-3 ovarian
OVCAR-4 ovarian = tested on: OVCAR-4 ovarian
HOP-18 NSCLC = tested on: HOP-18 NSCLC
T-47D breast = tested on: T-47D breast

SMILES	TGI (XF 498 CNS)	TGI (EKVX NSCLC)	TGI (LXFL 529 NSCLC)	TGI (SN12C renal)	TGI (MALME-3M melanoma)	TGI (HCT-15 colon)	TGI (LOX IMVI melanoma)	TGI (DMS 114 small cell lung)	TGI (SK-OV-3 ovarian)	TGI (OVCAR-4 ovarian)	TGI (HOP-18 NSCLC)	TGI (T-47D breast)
O=C1C(=O)c2ccccc2C(O)=C1CCCc1ccc(Oc2ccccc2)cc1	66.1 µM	> 100 µM	> 100 µM	> 100 µM	75 µM	79.7 µM	15.3 µM	23.5 µM	> 100 µM	> 100 µM		
COc1cc(C(C)c2cc3c(cc2OCCO)OCO3)cc(OC)c1OC (stereo not drawn)	5.33 µM	> 100 µM	> 100 µM	> 100 µM	> 100 µM	> 100 µM	> 100 µM	3.77 µM		> 100 µM	> 100 µM	
CCOC(=O)Cc1cc(OC)c(OC)cc1/C(Cl)=C(\C=O)c1ccc(OC)c(OC)c1	46.2 µM	71.7 µM		33.5 µM	74.3 µM	45.2 µM	36.4 µM	48.8 µM	86 µM	56.3 µM	75.4 µM	
COc1ccc(NC(C)=O)cc1N1C(=O)/C(=C\c2cc(OC)c(OC)c(OC)c2)SC1c1ccccc1 (stereo not drawn)		> 100 µM		> 100 µM	> 100 µM	> 100 µM	> 100 µM		> 100 µM	> 100 µM		> 100 µM
Cc1nc2c(sc(=S)n2-c2ccccc2)c(=O)[nH]1			> 100 µM		> 100 µM				> 100 µM		> 100 µM	
COc1ccc(C2N(NC(=O)c3ccncc3)C(=O)CS2(=O)=O)cc1F (stereo not drawn)	> 100 µM		> 100 µM	> 100 µM	> 100 µM	> 100 µM	> 100 µM	> 100 µM	> 100 µM	> 100 µM	> 100 µM	
COc1ccccc1Cc1nc(-c2ccccc2)nn(C2OC(COC(C)=O)C(OC(C)=O)C(OC(C)=O)C2OC(C)=O)c1=S (stereo not drawn)	6.49 µM	> 86.4 µM		32.2 µM	72.3 µM	84.6 µM	> 100 µM	> 100 µM	> 67.2 µM	8.58 µM	97.7 µM	
S=C1SCN(Cc2ccco2)CN1c1ccc(Br)cc1		64.6 µM		66.4 µM	35.3 µM	26.9 µM	13 µM		73.2 µM	37.5 µM		> 100 µM
COc1cc2c(cc1OC)C(Cl)C(c1ccc(Cl)c(Cl)c1)=C2Cl (stereo not drawn)		44.7 µM	17.2 µM	26.5 µM	40.8 µM	12.6 µM	5.75 µM	15.9 µM	40.5 µM		37 µM	
O=C(Nc1ccccc1)N(CCCCN(Cc1ccccc1)C(=O)Nc1ccccc1)Cc1ccccc1		> 100 µM		> 100 µM	> 100 µM	> 100 µM	> 100 µM		> 100 µM	> 100 µM		> 100 µM
CC(=O)Nc1ccc(OC2=CCN(C)CC2)cc1		> 100 µM		> 100 µM	> 100 µM	> 100 µM	> 100 µM		> 100 µM	> 100 µM		> 100 µM
CC1(c2ccc[n+](Cc3ccccc3)c2)OCCO1		> 100 µM	> 100 µM	> 100 µM	> 100 µM	> 100 µM	> 100 µM		> 100 µM	> 100 µM	> 100 µM	
COC(=O)c1c(O)ccc2c1c1c(n2Cc2cccc(C)c2)C(=O)c2ccccc2C1=O		37.9 µM		22.2 µM	34.1 µM	24.2 µM	26.6 µM		23.8 µM	20.1 µM		12.4 µM
CCCC(=O)NC(Nc1ccc(S(=O)(=O)Nc2nc(C)cc(C)n2)cc1)(C(F)(F)F)C(F)(F)F		> 100 µM		> 100 µM	> 100 µM	> 100 µM	> 100 µM		> 100 µM	> 100 µM		> 100 µM
Cc1cn(Cc2cnnn2CC2OC(n3cc(C)c(=O)[nH]c3=O)CC2O)c(=O)[nH]c1=O (stereo not drawn)		> 100 µM		> 100 µM	> 100 µM	> 100 µM	> 100 µM		> 100 µM	> 100 µM		> 100 µM
CCNC(=O)c1cc(/C=C/c2ccc([N+](=O)[O-])o2)nc2ccccc12		> 100 µM		> 100 µM	> 52.5 µM	> 100 µM	> 100 µM		> 100 µM	> 100 µM		> 100 µM
O=c1ccn(CC2(CO)CC(Cc3ccccc3)C2)c(=O)[nH]1 (stereo not drawn)		> 100 µM		> 100 µM	> 100 µM	> 100 µM	> 100 µM		> 100 µM	> 100 µM		> 100 µM
COc1cc2cc[n+]3c(C)c4cc(OC)c(OC)cc4c([O-])c3c2cc1OC	82.1 µM	> 100 µM	> 100 µM	> 100 µM	79.7 µM	> 100 µM		62.1 µM	> 100 µM	> 100 µM		
O=C(OCCN=c1c2ccccc2ccc2ccccc12)c1ccc([N+](=O)[O-])cc1		> 100 µM		> 100 µM	> 100 µM	> 100 µM	> 100 µM		> 100 µM	> 100 µM		> 100 µM
CCOC(=O)c1cc2c3c(c(C(C)=O)c(O)c2[nH]1)N(CC(C)CC)CC3 (stereo not drawn)		> 100 µM		> 100 µM	81.4 µM	> 100 µM	> 100 µM		> 100 µM	> 100 µM		92.6 µM
CCN(CC)c1ccc2cc(C(=O)Nc3cccc4ccccc34)c(=N)oc2c1		> 100 µM		> 100 µM	> 100 µM	> 100 µM	> 100 µM		> 100 µM	> 100 µM		> 100 µM
CN1CCN(CCCBr)CC1		> 100 µM		> 100 µM	> 100 µM	> 100 µM	> 100 µM		> 100 µM	> 100 µM		> 100 µM
CCOC(=O)c1nc2ccc(C(F)(F)F)cc2nc1Oc1cc(OC)cc(OC)c1		> 100 µM		> 100 µM	> 100 µM	> 100 µM	> 100 µM		> 100 µM	95.1 µM		> 100 µM
